Experimental data taken from ChEMBL document CHEMBL1201862, “PubChem BioAssay data set” (2004).
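Assay format: 96-well plates, 48-hour exposure. GI50 is the concentration that inhibits growth by half.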 Activity calls are given as the source filed them. No stated cut-off is given here; in the data, active = GI50 up to about 1.1 µM and inactive = higher.

What was measured:
Assay in all cases: NCI tumour cell line growth inhibition, 48 h
[1] = tested on: UACC-257
[2] = tested on: A549
[3] = tested on: M14
[4] = tested on: CCRF-CEM
[5] = tested on: OVCAR-5
[6] = tested on: COLO 205
[7] = tested on: SF-268
[8] = tested on: MOLT-4
[9] = tested on: UO-31
[10] = tested on: HCT-116
[11] = tested on: SF-295
[12] = tested on: TK-10
[13] = tested on: A498
[14] = tested on: 786-0
[15] = tested on: MDA-MB-231
[16] = tested on: CAKI-1
[17] = tested on: Hs-578T
[18] = tested on: HOP-92
[19] = tested on: OVCAR-8
[20] = tested on: NCI-H460

Measured: GI50

COc1ccc2c(c1)C1c3ccccc3CCN1CCC2 (stereo unspecified)
inactive: [1] 39.6 µM | [2] 51.2 µM | [3] 32.1 µM | [4] 38.5 µM | [5] 93.1 µM | [6] 44.7 µM | [7] 56.6 µM | [8] 35.6 µM | [9] 26.9 µM | [10] 32.1 µM | [11] 23.8 µM | [12] > 100 µM | [13] 69.3 µM | [14] 42.1 µM | [15] 35.8 µM | [16] > 100 µM | [17] 42.9 µM | [18] 70.3 µM | [19] 54.5 µM

Nc1c(Cl)ncnc1NCC1(CO)CCC1
inactive: [1] 63.4 µM | [2] > 100 µM | [4] > 100 µM | [5] > 100 µM | [6] > 100 µM | [7] > 100 µM | [8] > 100 µM | [9] > 100 µM | [20] > 100 µM | [10] > 100 µM | [11] > 100 µM | [12] > 100 µM | [13] > 100 µM | [14] > 100 µM | [15] > 100 µM | [17] > 100 µM | [18] > 100 µM | [19] > 100 µM

CCN(CC)N1C(=O)[N-][N+](CC)(CC)C1=O
inactive: [2] > 100 µM | [3] > 100 µM | [4] > 100 µM | [5] > 100 µM | [6] 71.1 µM | [7] > 100 µM | [8] > 100 µM | [9] > 100 µM | [20] > 100 µM | [10] > 100 µM | [11] > 100 µM | [12] > 100 µM | [13] > 100 µM | [14] > 100 µM | [15] > 100 µM | [16] > 100 µM | [17] > 100 µM | [18] > 100 µM | [19] > 100 µM

CC(=O)C(N1CCCCC1)C(O)(C(F)(F)F)C(F)(F)F (stereo unspecified)
inactive: [1] > 100 µM | [2] > 100 µM | [3] > 100 µM | [4] 37.3 µM | [5] > 100 µM | [6] > 100 µM | [8] 24 µM | [9] > 100 µM | [20] 89.1 µM | [10] 58.3 µM | [11] > 100 µM | [12] > 100 µM | [13] > 100 µM | [14] > 100 µM | [15] > 100 µM | [16] > 100 µM | [17] 41.1 µM | [18] 54.3 µM | [19] > 100 µM

COC(=O)C1(Cc2ccc3c(c2)CCC3)Cc2cc3c(cc2C1)CCC3
inactive: [1] 19.5 µM | [2] 28.6 µM | [3] 35.2 µM | [4] 19.3 µM | [5] 55.6 µM | [6] 38.5 µM | [7] 30.3 µM | [8] 29.8 µM | [9] 49.9 µM | [20] 35 µM | [10] 35.1 µM | [11] 33.3 µM | [12] > 100 µM | [13] 35.2 µM | [14] 51.4 µM | [15] 22.9 µM | [17] 65.6 µM | [18] 25.8 µM | [19] 54.2 µM

COC(=O)CCN(CCC(=O)OC)C1CC1
inactive: [1] > 100 µM | [2] > 100 µM | [3] > 100 µM | [4] > 100 µM | [5] > 100 µM | [6] > 100 µM | [7] > 100 µM | [8] > 100 µM | [9] 76.7 µM | [20] > 100 µM | [10] > 100 µM | [11] > 100 µM | [12] > 100 µM | [13] > 100 µM | [14] > 100 µM | [15] > 100 µM | [17] > 100 µM | [18] 28.3 µM | [19] > 100 µM

O=[N+]([O-])/C(C(Cl)=C(Cl)Cl)=C(/Nc1ccccc1)Sc1ccccc1
inactive: [1] 16.6 µM | [2] 23.4 µM | [3] 19.8 µM | [4] 16.8 µM | [6] 18.5 µM | [7] 14 µM | [8] 19.8 µM | [9] 14 µM | [20] 18.4 µM | [10] 18.5 µM | [11] 16.5 µM | [12] 27.7 µM | [13] 20.8 µM | [14] 21.7 µM | [15] 15.7 µM | [16] 13.5 µM | [17] 40.4 µM | [18] 32.8 µM | [19] 17.7 µM

O=C1CCC(=O)N1n1c(Cc2ccc(Cl)cc2)n[nH]c1=O
inactive: [1] > 100 µM | [2] > 100 µM | [3] > 100 µM | [5] > 100 µM | [6] > 100 µM | [7] > 100 µM | [8] > 100 µM | [9] > 100 µM | [20] > 100 µM | [10] > 100 µM | [11] > 100 µM | [12] > 100 µM | [13] > 100 µM | [14] > 100 µM | [15] > 100 µM | [16] > 100 µM | [17] > 100 µM | [18] > 100 µM | [19] > 100 µM
